Values of other authors in US20050255150A1 (priority 2004, published 2005).

Settings: in vivo

COc1ccc2c3c1O[C@H]1[C@@H](O)C=C[C@H]4[C@@H](C2)N(C)CC[C@@]341 [Codeine]
Intramuscular Administration equivalent of 10 mg of intramuscular morphine in 24 hours: 130 mg | Oral Administration equivalent of 10 mg morphine in 24 hours (po): 200 mg

CCOC(=O)C1(c2ccccc2)CCN(C)CC1 [Meperidine]
Intramuscular Administration equivalent of 10 mg of intramuscular morphine in 24 hours: 75 mg

COc1ccc2c3c1O[C@H]1C(=O)CC[C@@]4(O)[C@@H](C2)N(C)CC[C@]314 [Oxycodone]
Intramuscular Administration equivalent of 10 mg of intramuscular morphine in 24 hours: 15 mg | Oral Administration equivalent of 10 mg morphine in 24 hours (po): 30 mg

CN1CC[C@]23c4c5ccc(O)c4O[C@H]2C(=O)CC[C@@]3(O)[C@H]1C5 [Oxymorphone]
Intramuscular Administration equivalent of 10 mg of intramuscular morphine in 24 hours: 1 mg | Oral Administration equivalent of 10 mg morphine in 24 hours (po): 10 mg

CN1CC[C@]23c4c5ccc(O)c4O[C@H]2[C@@H](O)C=C[C@H]3[C@H]1C5 [Morphine]
Intramuscular Administration equivalent of 10 mg of intramuscular morphine in 24 hours: 10 mg | Oral Administration equivalent of 10 mg morphine in 24 hours (po): 60 (30 mg) | Oral Administration equivalent of 10 mg morphine in 24 hours (value in brackets) (po): 60 (30 mg)

CCC(=O)C(CC(C)N(C)C)(c1ccccc1)c1ccccc1 (centres unmarked) [Methadone]
Intramuscular Administration equivalent of 10 mg of intramuscular morphine in 24 hours: 10 mg | Oral Administration equivalent of 10 mg morphine in 24 hours (po): 20 mg

CC(=O)Oc1ccc2c3c1O[C@H]1[C@@H](OC(C)=O)C=C[C@H]4[C@@H](C2)N(C)CC[C@@]341 [Heroin]
Intramuscular Administration equivalent of 10 mg of intramuscular morphine in 24 hours: 5 mg | Oral Administration equivalent of 10 mg morphine in 24 hours (po): 60 mg
